Values quoted from earlier work in publication PMC10323144, “Garbage in, garbage out: how reliable training data improved a virtual screening approach against SARS-CoV-2 MPro” (Frontiers in Pharmacology, 2023).

Tested on: MPro
Conditions: compiled from peer-reviewed sources (287 compounds) ref the 18 original articles; cited from earlier work

| Compound | Class (MPro activity class) |
| --- | --- |
| Nc1nc(NC2CC2)c2ncn([C@H]3C=C[C@@H](CO)C3)c2n1 [Abacavir] | 0 (compounds with IC50 > 20 μM, percentage inhibition <80% at 20 µM or 50 μM, or percentage enzyme inhibition <50% at 10 µM were labelled as INACTIVE) |
| CCNc1ncc(C#N)cc1CN1CCN(C(=O)CCl)CC1 [DAR-DIA-fb20be43-4] | 1 (Compounds with IC50 < 10 µM or with a percentage of enzyme inhibition >50% at 10 µM were labelled as ACTIVE) |
| N#Cc1ccccc1-c1cc(-c2cc(Cl)cc(OCCc3ccccc3)c2)c(=O)n(-c2cccnc2)c1 [compound 8] | 1 (Compounds with IC50 < 10 µM or with a percentage of enzyme inhibition >50% at 10 µM were labelled as ACTIVE) |
| O=c1[nH]cc(-c2cc(-c3cc(Cl)cc(OCc4cccc(F)c4)c3)c(=O)n(-c3cccnc3)c2)c(=O)[nH]1 [compound 19] | 1 (Compounds with IC50 < 10 µM or with a percentage of enzyme inhibition >50% at 10 µM were labelled as ACTIVE) |
| Cc1nn(-c2ccccc2)c(Nc2cccc(C(F)(F)F)c2)c1NS(C)(=O)=O [LASSBio-428 (10)] | 0 (compounds with IC50 > 20 μM, percentage inhibition <80% at 20 µM or 50 μM, or percentage enzyme inhibition <50% at 10 µM were labelled as INACTIVE) |
| MLN9708 | 0 (compounds with IC50 > 20 μM, percentage inhibition <80% at 20 µM or 50 μM, or percentage enzyme inhibition <50% at 10 µM were labelled as INACTIVE) |
| CCC(=O)Nc1ccc(N(Cc2ccsc2)C(=O)Cn2nnc3ccccc32)cc1 [ALP-POS-c59291d4-2] | 1 (Compounds with IC50 < 10 µM or with a percentage of enzyme inhibition >50% at 10 µM were labelled as ACTIVE) |
| O=c1c(O)c(-c2ccc(O)c(O)c2)oc2cc(O)c(O)c(O)c12 [Quercetagetin] | 1 (Compounds with IC50 < 10 µM or with a percentage of enzyme inhibition >50% at 10 µM were labelled as ACTIVE) |
| O=C(NC(Cc1cc(=O)[nH]c2ccccc12)C(=O)O)c1ccc(Cl)cc1 (centres unmarked) [REBAMIPIDE] | 0 (compounds with IC50 > 20 μM, percentage inhibition <80% at 20 µM or 50 μM, or percentage enzyme inhibition <50% at 10 µM were labelled as INACTIVE) |
| O=c1cc(-c2ccccc2)oc2cc(O)cc(O)c12 [Chrysin] | 0 (compounds with IC50 > 20 μM, percentage inhibition <80% at 20 µM or 50 μM, or percentage enzyme inhibition <50% at 10 µM were labelled as INACTIVE) |
| CC(C)C[C@H](NC(=O)[C@H](Cc1ccccc1)NC(=O)c1cnccn1)B(O)O [bortezomib] | 0 (compounds with IC50 > 20 μM, percentage inhibition <80% at 20 µM or 50 μM, or percentage enzyme inhibition <50% at 10 µM were labelled as INACTIVE) |
| COc1cc(Br)cc(C=NN2C(=O)c3ccccc3NC2c2cc(Br)cc(OC)c2O)c1O (centres unmarked) [QZ3] | 0 (compounds with IC50 > 20 μM, percentage inhibition <80% at 20 µM or 50 μM, or percentage enzyme inhibition <50% at 10 µM were labelled as INACTIVE) |
| N#Cc1ccccc1-c1cc(-c2cccc(Cl)c2)c(=O)n(-c2cccnc2)c1 [compound 2] | 1 (Compounds with IC50 < 10 µM or with a percentage of enzyme inhibition >50% at 10 µM were labelled as ACTIVE) |
| O=c1[nH]cc(-c2cc(-c3cc(Cl)cc(OCc4ccc(F)cc4Cl)c3)c(=O)n(-c3cccnc3)c2)c(=O)[nH]1 [compound 22] | 1 (Compounds with IC50 < 10 µM or with a percentage of enzyme inhibition >50% at 10 µM were labelled as ACTIVE) |
| CC#CCn1c(N2CCCC(N)C2)nc2c1c(=O)n(Cc1nc(C)c3ccccc3n1)c(=O)n2C (centres unmarked) [Linafliptin] | 0 (compounds with IC50 > 20 μM, percentage inhibition <80% at 20 µM or 50 μM, or percentage enzyme inhibition <50% at 10 µM were labelled as INACTIVE) |
| CC1(C)CN(C(=O)c2ccc(-c3cccc4nc(NC(=O)C5CC5)nn34)cc2)C1 [SOLCITINIB] | 0 (compounds with IC50 > 20 μM, percentage inhibition <80% at 20 µM or 50 μM, or percentage enzyme inhibition <50% at 10 µM were labelled as INACTIVE) |
| Cn1c(=O)cc(N2CCC[C@@H](N)C2)n(Cc2cc(F)ccc2C#N)c1=O [Trelagliptin] | 0 (compounds with IC50 > 20 μM, percentage inhibition <80% at 20 µM or 50 μM, or percentage enzyme inhibition <50% at 10 µM were labelled as INACTIVE) |
